Test results reported in patent US20030166161A1, “Gene that imparts selective proliferative activity” (priority 1997, published 2003).

Experiments:
BaF/GCRTmR clones = assay: XTT proliferation assay of BaF/GCRTmR clones; assay type: cell-based; conditions: for growth of GCRTmR-transduced Ba/F3 cells with stimulator: IL-3, 10^−9 M G-CSF, 10^−7 M Tm or 10^−7 M E2, FIG. 17B-D
Description: (§1) Cultures containing IL-3 or G-CSF were split every three to four days, while Tm-containing cultures were diluted every four days. Cell proliferation assay was performed periodically in 96-well microtiter plates by the 2,3-bis (2-methoxy-4-nitro-5-sulfophenyl)-5-[(phenylamino)-carbonyl]-2H-tetrazolium hydroxide (XTT) method using Cell Proliferation Kit II (Boehringer Mannheim, Mannheim, Germany) [Scudiero D A, et al., Cancer Res., (1988) 48: 4827-4833]. For hormone dose-response analysis, transduced Ba/F3 cells were stimulated by various concentrations of Tm or E2, and XTT assay was performed on day zero and day four. The final concentration of ethanol used to dilute Tm and E2 was 0.1% in all the culture conditions.

[1] = tested on: parental and transduced Ba/F3 cultures; assay: Toxicity of E2 or Tm in Ba/F3 cultures with IL-3; conditions: concentrations up to 10^−6 M
Description: as §1

BaF/ΔGCRTmR clones = assay: XTT proliferation assay of BaF/ΔGCRTmR clones; assay type: cell-based; conditions: 10^−9 M G-CSF or 10^−7 M Tm; FIG. 17E-G
Description: as §1

Parental Ba/F3 cells = assay: XTT proliferation assay of parental Ba/F3 cells; assay type: cell-based; conditions: IL-3, 10^−9 M G-CSF, 10^−7 M Tm, 10^−7 M E2; FIG. 17A
Description: as §1

[2] = tested on: Ba/F3 cells into which pCMX-GCRER was introduced; assay: XTT proliferation assay, Ba/F3 cells with pCMX-GCRER; assay type: cell-based; conditions: for proliferation of IL-3-independent cells by stimulation: stimulation with G-CSF or estradiol, FIG. 3
Source text: The Ba/F3 cells into which “pCMX-GCRER” was introduced were examined.

GCRER-expressing Ba/F3 = conditions: Ito K, et al., Blood (1997), cited from earlier work
[3] = tested on: Ba/F3 cells into which pCMX-GRΔ(5-195, 725-756)/ER was introduced; assay: XTT proliferation assay, Ba/F3 cells with pCMX-GCRΔ(5-195, 725-756)/ER; assay type: cell-based; conditions: estrogen or G-CSF stimulation
[4] = tested on: Ba/F3 cells into which pCMX-GCRΔ(5-195)/ER was introduced; assay: XTT proliferation assay, Ba/F3 cells with pCMX-GCRΔ(5-195)/ER; assay type: cell-based; conditions: G-CSF or estradiol stimulation, FIG. 5
Source text: The Ba/F3 cells into which “pCMX-GCRΔ(5-195)/ER” was introduced were then examined.

Ba/F3 cells = assay: MTS cell proliferation assay of Ba/F3 cells transduced with Mpl chimeric genes; assay type: cell-based
Description: BOSC23 cells were transfected with MSCV/ΔGCR-ER orMSCV/Mpl-ER or MSCV/ΔGCR-Mpl-ER or MSCV/ΔGCR-Mpl-TmR-IRES-EGFP using Transfection MBS Mammalian Transfection Kit (Stratagene) and the viral supernatants were harvested on day two post-transfection. Fibronectin-assisted transduction of IL3-dependentBa/F3 cells was carried out on 6-well plates precoated with CH296 fibronectin fragment (Retronectin; Takara Shuzo) according to a standard procedure. After retroviral infection, ΔGCR-Mpl-TmR-IRES-EGFP transduced Ba/F3 cells (BaF/ΔGCR-Mpl-TmR) were selected with EPICS Elite ESP Cell Sorter. GFP-positive cells were […] and were cloned by limiting dilution with 10^−7 M 4-hydroxytamoxifen (Tm).
Cell proliferation assay was periodically performed using CellTier 96 Aqueous One Solution Cell Proliferation Assay {3-(4,5-dimethylthiazol-2-yl)-5-(3-carboxymethoxyphenyl)-2-(4-sulfophenyl)-2H-tetrazolium (MTS); Promega, Madison, Wis.} essentially according to the manufacturer's instruction. In brief, 20 μl per well of MTS-labeling mixture was added. After the incubation at 37° C. for 2 hours, the spectrophotometeical absorbance was measured at the wave length of 490 nm and 650 nm.

[5] = XTT day four vs day zero, FIG. 19

4-hydroxytamoxifen [Tm]
optimal concentration of Tm to stimulate BaF/GCRTmR (BaF/GCRTmR clones): 10^−7-10^−6 M
response to 10 M Tm, clone 3 (BaF/GCRTmR clones; BaF/GCRTmR clone 3, 10 M Tm as printed): partially responded
growth of GCRTmR-transduced Ba/F3 cells with stimulator (BaF/GCRTmR clones): grew continuously
Tm concentration at which all three clones grew well (BaF/GCRTmR clones; [5]): 10^−7-10^−6 M
time until cells stopped growing and died upon removal of Tm (BaF/GCRTmR clones; long-term culture without IL-3, FIG. 18): ≤ 24 h
time Tm alone could support the cells in long-term culture (BaF/GCRTmR clones; without IL-3, FIG. 18): at least 36 days
toxic effects [1]: neither reagent showed toxic effects
growth of BaF/ΔGCRTmR clones with stimulator (BaF/ΔGCRTmR clones): proliferated
support of untransduced Ba/F3 by stimulator (Parental Ba/F3 cells): did not support

C[C@]12CC[C@@H]3c4ccc(O)cc4CC[C@H]3[C@@H]1CC[C@@H]2O [estradiol, β-estradiol]
response to 10^−6 M E2, clone 3 (BaF/GCRTmR clones; BaF/GCRTmR clone 3, 10^−6 M E2): limited response
response to 10^−6 M E2, the other clones (BaF/GCRTmR clones; BaF/GCRTmR clones 1 and 2, 10^−6 M E2): inert
growth of GCRTmR-transduced Ba/F3 cells with stimulator (BaF/GCRTmR clones): had no effect
E2 concentration up to which no growth was observed (BaF/GCRTmR clones; [5]): up to 10^−7 M
estradiol concentrations at which cell proliferation was observed ([2]; estradiol varied between 10^−14 and 10^−7 M, FIG. 4): 10^−9 to 10^−7 M
proliferation of IL-3-independent cells by stimulation [2]: proliferated
E2 concentration inducing proliferation of GCRER-expressing Ba/F3 (GCRER-expressing Ba/F3): ≥ 10^−10 M
E2 dose optimal to support Ba/F3 cells expressing GCRER or ΔGCRER (GCRER-expressing Ba/F3; previous study): 10^−7 M
cell proliferation by stimulation [3]: cell proliferation was caused
support of untransduced Ba/F3 by stimulator (Parental Ba/F3 cells): did not support
cell proliferation by stimulation [4]: caused cell proliferation

B1: Mpl-ER: fusion protein between Mpl and ER (protein)
chain: QDVSLLASDSEPLKCFSRTFEDLTCFWDEEEAAPSGTYQLLYAYPREKPRACPLSSQSMPHFGTRYVCQFPDQEEVRLFFPLHLWVKNVFLNQTRTQRVLFVDSVGLPAPPSIIKAMGGSQPGELQISWEEPAPEISDFLRYELRYGPRDPKNSTGPTVIQLIATETCCPALQRPHSASALDQSPCAQPTMPWQDGPKQTSPSREASALTAEGGSCLISGLQPGNSYWLQLRSEPDGISLGGSWGSWSLPVTVDLPGDAVALGLQCFTLDLKNVTCQWQQQDHASSQGFFYHSRARCCPRDRYPIWENCEEEEKTNPGLQTPQFSRCHFKSRNDSIIHILVEVTTAPGTVHSYLGSPFWIHQAVRLPTPNLHWREISSGHLELEWQHPSSWAAQETCYQLRYTGEGHQDWKVLEPPLGARGGTLELRPRSRYRLQLRARLNGPTYQGPWSSWSDPTRVETATETAWISLVTALHLVLGLSAVLGLLLLRWQFPAHYRRLRHALWPSLPDLHRVLGQYLRDTAALSPPKATVSDTCEEVEPSLLEILPKSSERTPLPLCSSQAQMDYRRLQPSCLGTMPLSVCPPMAESGSCCTTHIANHSYLPLSYWQQPGTSGDMRAANLWPSPLVIKHTKKNSPALSLTADQMVSALLDAEPPLIYSEYDPSRPFSEASMMGLLTNLADRELVHMINWAKRVPGFGDLNLHDQVHLLECAWLEILMIGLVWRSMEHPGKLLFAPNLLLDRNQGKCVEGMVEIFDMLLATSSRFRMMNLQGEEFVCLKSIILLNSGVYTFLSSTLKSLEEKDHIHRVLDKINDTLIHLMAKAGLTLQQQHRRLAQLLLILSHIRHMSNKGMEHLYNMKCKNVVPLYDLLLEMLDAHRLHAPASRMGVPPEEPSQSQLTTTSSTSAHSLQTYYIPPEAEGFPNTI
growth response to TPO in the absence of IL-3 (Ba/F3 cells; 100 ng/ml rhTPO): acquired the ability to proliferate
growth response to estrogen (E2) in the absence of IL-3 (Ba/F3 cells; 10^−7M β-estradiol): acquired the ability to proliferate

B2: G-CSF: cytokine (hematopoietic factor); human G-CSF provided by Chugai Pharmaceuticals (protein)
chain: TPLGPASSLPQSFLLKCLEQVRKIQGDGAALQEKLCATYKLCHPEELVLLGHSLGIPWAPLSSCPSQALQLAGCLSQLHSGLFLYQGLLQALEGISPELGPTLDTLQLDVADFATTIWQQMEELGMAPALQPTQGAMPAFASAFQRRAGGVLVASHLQSFLEVSYRVLRHLAQP
growth of GCRTmR-transduced Ba/F3 cells with stimulator (BaF/GCRTmR clones): grew continuously
proliferation of IL-3-independent cells by stimulation [2]: proliferated
cell proliferation by stimulation [3]: no response
growth of BaF/ΔGCRTmR clones with stimulator (BaF/ΔGCRTmR clones): did not respond
support of untransduced Ba/F3 by stimulator (Parental Ba/F3 cells): did not support
cell proliferation by stimulation [4]: blocked
